Type in all cases: biochemical
One test has as its target PAK1 (Homo sapiens, UniProt Q13153). The test can be described thus: In vitro kinase assay, PAK1 (Caliper EZ Reader conversion). On the set-up: purchased Carna Biosciences. The method in brief:
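Human PAK1 was preincubated with compound (6 concentrations, 4-fold dilutions) for 10 min at room temperature, then reacted with substrate mix for 30 and 60 min. Substrate conversion was read by Caliper mobility shift. IC50 was fitted by variable-slope log(inhibitor)–response, normalised to FRAX597 and buffer controls.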

The next test addresses c-Kit (Homo sapiens, UniProt P10721). The test can be described thus: cKit kinase mobility shift assay. The procedure: The effect of the compounds on the activity of cKit, RET and AXL kinases were assessed by Mobility shift assay. • 1. 1× kinase base buffer and stop buffer for testing kinases were prepared • 1-1) 1× Kinase base buffer (50 mM HEPES, pH 7.5, 0.01% Triton X-100) • 1-2) Stop buffer (100 mM HEPES, pH 7.5, 0.015% Brij-35, 0.2% Coating Reagent #3, 50 mM EDTA) • 2. Compound and assay plate preparation: the compound was diluted to 50× of the final desired highest inhibitor concentration in reaction by 100% DMSO. 100 μl of this compound dilution was transferred to a well in a 96-well plate. For example, if the highest desired concentration was 5 μM, then 250 μM of compound DMSO solution was prepared in this step. For all compounds, the compound was serially diluted by transferring 10 μl to 70 μl of 100 DMSO in the next well and so forth for a total of 5 concentrations. 100 μl of 100% DMSO was added to two empty wells for no compound control and no enzyme control in the same 96-well plate. The plate was labeled as source plate. The intermediate plate was prepared by transferring 10 μl of compound from source plate to a new 96-well plate as the intermediate plate, adding 90 μl of 1× kinase buffer to each well of the intermediate plate, mixing the compounds in intermediate plate for 10 min on shaker. 5 μl of each well from the 96-well intermediate plate were transferred to a 384-well plate in duplicates. For example, A1 of the 96-well plate was transferred to A1 and A2 of the 384-well plate. A2 of the 96-well plate was transferred to A3 and A4 of the 384-well plate, and so on. • 4. Kinase reaction: The assay plate already contained 5 μl of compound in 10% DMSO. A 2.5× enzyme solution was prepared by adding kinases (cKit, RET, or AXL) and DTT in 1× kinase base buffer. 2.5× enzyme solution was transferred to the assay plate (by adding 10 μl of 2.5× enzyme solution to each well of the 384-well assay plate). The plate was incubated at room temperature for 10 min. 2.5× peptide solution was prepared by adding FAM-labeled peptide, ATP, MgCl2 in the 1× kinase base buffer. 2.5× peptide solution was added to the assay plate by adding 10 μl of 2.5× peptide solution to each well of the 384-well assay plate. The plate was incubated at 28° C. for the specified period of time. 25 μl of stop buffer was added to stop reaction. Data was collected on Caliper.

In the next test the target is HPK1 (MAP4K1) (Homo sapiens, UniProt Q92918). The test can be described thus: HPK1 (MAP4K1) kinase Lantha screen assay. The gist of the method:
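Recombinant MAP4K1 preincubated 10 min with compound (6-point dilution, duplicates) in 50 mM HEPES pH 7.5, 10 mM MgCl2, then reacted with Fluorescein-PKC substrate and ATP for 90 min at room temperature. Antibody detection solution stopped reaction; after 60 min, TR-FRET read at ex 340 nm, em 520/495 nm.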

What is called IC50 is the point on the concentration scale where inhibition reaches its midpoint.

Structures are written as SMILES.

Sequence of c-Kit (P10721 26-976): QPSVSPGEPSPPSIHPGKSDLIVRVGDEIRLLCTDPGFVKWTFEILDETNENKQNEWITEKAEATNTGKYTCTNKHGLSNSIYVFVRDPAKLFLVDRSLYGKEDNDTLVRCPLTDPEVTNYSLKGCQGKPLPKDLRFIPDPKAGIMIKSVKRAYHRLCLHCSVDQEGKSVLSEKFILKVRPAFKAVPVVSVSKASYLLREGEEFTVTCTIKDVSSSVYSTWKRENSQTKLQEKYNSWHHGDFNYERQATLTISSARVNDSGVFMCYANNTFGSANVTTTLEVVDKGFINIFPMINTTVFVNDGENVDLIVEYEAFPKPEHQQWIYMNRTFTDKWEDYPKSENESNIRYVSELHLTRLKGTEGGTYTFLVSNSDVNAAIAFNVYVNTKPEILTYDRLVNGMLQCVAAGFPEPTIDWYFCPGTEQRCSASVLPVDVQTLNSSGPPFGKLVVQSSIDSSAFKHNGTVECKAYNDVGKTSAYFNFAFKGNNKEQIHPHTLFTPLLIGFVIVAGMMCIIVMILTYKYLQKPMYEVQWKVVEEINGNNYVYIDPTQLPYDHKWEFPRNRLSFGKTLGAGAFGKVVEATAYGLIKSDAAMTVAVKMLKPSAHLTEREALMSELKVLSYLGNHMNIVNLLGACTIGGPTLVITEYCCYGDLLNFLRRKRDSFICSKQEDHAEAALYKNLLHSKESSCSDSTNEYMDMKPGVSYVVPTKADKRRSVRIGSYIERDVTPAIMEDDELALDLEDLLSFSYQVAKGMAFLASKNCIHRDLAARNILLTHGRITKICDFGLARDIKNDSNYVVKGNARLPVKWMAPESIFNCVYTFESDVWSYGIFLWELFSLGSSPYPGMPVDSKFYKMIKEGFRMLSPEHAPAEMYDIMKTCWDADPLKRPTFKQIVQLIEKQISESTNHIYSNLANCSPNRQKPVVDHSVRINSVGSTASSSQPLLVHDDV
Sequence of HPK1 (MAP4K1) (Q92918 whole entry, species assumed): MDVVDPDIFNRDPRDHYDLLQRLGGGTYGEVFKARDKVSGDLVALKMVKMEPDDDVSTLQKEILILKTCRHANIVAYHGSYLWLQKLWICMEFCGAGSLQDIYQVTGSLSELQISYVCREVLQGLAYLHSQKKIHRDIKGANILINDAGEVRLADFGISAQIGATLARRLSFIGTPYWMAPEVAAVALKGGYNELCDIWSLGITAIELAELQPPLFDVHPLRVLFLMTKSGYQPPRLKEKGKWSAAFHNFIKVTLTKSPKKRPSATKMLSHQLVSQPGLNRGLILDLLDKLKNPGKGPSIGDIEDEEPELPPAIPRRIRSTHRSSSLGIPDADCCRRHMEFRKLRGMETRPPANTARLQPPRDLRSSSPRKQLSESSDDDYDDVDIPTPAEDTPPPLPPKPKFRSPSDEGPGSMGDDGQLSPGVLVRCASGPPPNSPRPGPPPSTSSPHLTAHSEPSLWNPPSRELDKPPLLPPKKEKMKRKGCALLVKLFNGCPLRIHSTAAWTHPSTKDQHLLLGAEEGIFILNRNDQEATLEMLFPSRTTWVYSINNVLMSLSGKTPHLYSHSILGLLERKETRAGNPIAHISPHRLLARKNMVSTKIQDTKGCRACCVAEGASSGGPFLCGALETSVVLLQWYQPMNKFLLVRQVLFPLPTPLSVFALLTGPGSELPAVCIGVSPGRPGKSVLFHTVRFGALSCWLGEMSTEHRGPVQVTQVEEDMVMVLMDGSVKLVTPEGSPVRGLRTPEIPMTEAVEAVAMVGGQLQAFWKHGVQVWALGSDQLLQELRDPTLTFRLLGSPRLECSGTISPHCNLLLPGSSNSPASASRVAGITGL
Sequence of PAK1 (Q13153 whole entry): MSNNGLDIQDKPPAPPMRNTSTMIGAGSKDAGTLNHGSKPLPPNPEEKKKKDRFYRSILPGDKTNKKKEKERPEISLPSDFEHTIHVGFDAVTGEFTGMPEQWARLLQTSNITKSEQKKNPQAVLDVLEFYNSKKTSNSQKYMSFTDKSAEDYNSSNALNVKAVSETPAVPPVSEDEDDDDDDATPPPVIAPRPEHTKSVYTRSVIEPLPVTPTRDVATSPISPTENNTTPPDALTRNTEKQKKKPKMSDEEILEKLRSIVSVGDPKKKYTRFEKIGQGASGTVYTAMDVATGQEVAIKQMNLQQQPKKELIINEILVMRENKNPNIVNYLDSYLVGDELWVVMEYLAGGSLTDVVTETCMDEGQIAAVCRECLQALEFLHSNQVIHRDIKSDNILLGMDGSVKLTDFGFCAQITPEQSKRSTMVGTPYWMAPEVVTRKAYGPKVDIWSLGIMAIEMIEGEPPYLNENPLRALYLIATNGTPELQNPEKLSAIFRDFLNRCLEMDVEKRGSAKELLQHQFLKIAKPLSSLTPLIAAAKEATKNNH

Turning to `CN1CCN(c2ccc(Nc3ncc4c(n3)N3CCN=C3C(c3ccccc3Cl)=C4)cn2)CC1` [Compound 92, 6-(2-chlorophenyl)-N-(6-(4-methylpiperazin-1-yl)pyridin-3-yl)-8,9-dihydroimidazo[1′,2′:1,6]pyrido[2,3-d]pyrimidin-2-amine], the IC50 against PAK1 and on c-Kit was 100 to 10000 nM each time.
Take `Cn1cc(Nc2ncc3c(n2)N2CCN=C2C(c2ccc(Cl)cc2Cl)=C3)cn1` [Compound 102, 6-(2,4-dichlorophenyl)-N-(1-methyl-1H-pyrazol-4-yl)-8,9-dihydroimidazo[1′,2′:1,6]pyrido[2,3-d]pyrimidin-2-amine]: the IC50 at c-Kit is under 100 nM.
`CN1CCC(n2cc(Nc3ncc4c(n3)N3CCN=C3C(c3ccc(Cl)cc3Cl)=C4)cn2)CC1` [Compound 103, 6-(2,4-dichlorophenyl)-N-(1-(1-methylpiperidin-4-yl)-1H-pyrazol-4-yl)-8,9-dihydroimidazo[1′,2′:1,6]pyrido[2,3-d]pyrimidin-2-amine]: the IC50 on c-Kit was under 100 nM.
For `CNc1ncc2c(n1)N1CCN=C1C(c1c(C)ccc(NC(=O)c3cc(C(F)(F)F)ccn3)c1F)=C2` [Compound 140, N-(2-fluoro-4-methyl-3-(2-(methylamino)-8,9-dihydroimidazo[1′,2′:1,6]pyrido[2,3-d]pyrimidin-6-yl)phenyl)-4-(trifluoromethyl)picolinamide], the IC50 at c-Kit lay within 100 to 10000 nM.
`O=C(Nc1cc(C2=Cc3cnc(NC4COC4)nc3N3CCN=C23)c(Br)cc1F)c1cc(C(F)(F)F)ccn1` [Compound 188, N-(4-bromo-2-fluoro-5-(2-(oxetan-3-ylamino)-8,9-dihydroimidazo[1′,2′:1,6]pyrido[2,3-d]pyrimidin-6-yl)phenyl)-4-(trifluoromethyl)picolinamide]: the IC50 at c-Kit was under 100 nM.
For the compound `Cc1ccc(NC(=O)c2cc(C(F)(F)F)ccn2)cc1C1=Cc2cnc(Nc3cnn(C)c3)nc2N2CCN=C12` [Compound 195, N-(4-methyl-3-(2-((1-methyl-1H-pyrazol-4-yl)amino)-8,9-dihydroimidazo[1′,2′:1,6]pyrido[2,3-d]pyrimidin-6-yl)phenyl)-4-(trifluoromethyl)picolinamide], the IC50 at HPK1 (MAP4K1) and on c-Kit was under 100 nM in each case.
Regarding `Cc1ccc(NC(=O)c2cc(C(F)(F)F)ccn2)cc1C1=Cc2cnc(Nc3cccc(CO)c3)nc2N2CCN=C12` [Compound 229, N-(3-(2-((3-(hydroxymethyl)phenyl)amino)-8,9-dihydroimidazo[1′,2′:1,6]pyrido[2,3-d]pyrimidin-6-yl)-4-methylphenyl)-4-(trifluoromethyl)picolinamide], the IC50 at HPK1 (MAP4K1) and at c-Kit was under 100 nM each time.
As for `CNc1ncc2c(n1)N1CCN=C1C(Oc1ccc(NC(=O)NC3CC3)cc1)=C2` [Compound 312, 1-cyclopropyl-3-(4-((2-(methylamino)-8,9-dihydroimidazo[1′,2′:1,6]pyrido[2,3-d]pyrimidin-6-yl)oxy)phenyl)urea], at c-Kit, the IC50 is over 10000 nM.
Take `CNc1ncc2c(n1)N1CCN=C1C(Oc1ccc(NC(=O)Nc3ccc(Cl)c(C(F)(F)F)c3)cc1)=C2` [Compound 313, 1-(4-chloro-3-(trifluoromethyl)phenyl)-3-(4-((2-(methylamino)-8,9-dihydroimidazo[1′,2′:1,6]pyrido[2,3-d]pyrimidin-6-yl)oxy)phenyl)urea]: at c-Kit, the IC50 lay in the range of 100 to 10000 nM.
Take `CNc1ncc2c(n1)N1CCN=C1C(c1cc(NC(=O)NC3CC3)c(F)cc1C)=C2` [Compound 315, 1-cyclopropyl-3-(2-fluoro-4-methyl-5-(2-(methylamino)-8,9-dihydroimidazo[1′,2′:1,6]pyrido[2,3-d]pyrimidin-6-yl)phenyl)urea]: on c-Kit, the IC50 was over 10000 nM.
For `CNc1ncc2c(n1)N1CCN=C1C(c1cc(NC(=O)NCCC(F)(F)F)c(F)cc1C)=C2` [Compound 316, 1-(2-fluoro-4-methyl-5-(2-(methylamino)-8,9-dihydroimidazo[1′,2′:1,6]pyrido[2,3-d]pyrimidin-6-yl)phenyl)-3-(3,3,3-trifluoropropyl)urea], the results for the IC50 on HPK1 (MAP4K1) and on c-Kit were over 10000 nM and 100 to 10000 nM, respectively.
Turning to `CNc1ncc2c(n1)N1CCN=C1C(c1cc(NC(=O)NCCC(C)(C)C)c(F)cc1C)=C2` [Compound 317, 1-(3,3-dimethylbutyl)-3-(2-fluoro-4-methyl-5-(2-(methylamino)-8,9-dihydroimidazo[1′,2′:1,6]pyrido[2,3-d]pyrimidin-6-yl)phenyl)urea], the IC50 was 100 to 10000 nM against HPK1 (MAP4K1) and under 100 nM on c-Kit.
Consider `CNc1ncc2c(n1)N1CCN=C1C(c1cc(NC(=O)Nc3ccccc3)c(F)cc1Br)=C2` [Compound 326, 1-(4-bromo-2-fluoro-5-(2-(methylamino)-8,9-dihydroimidazo[1′,2′:1,6]pyrido[2,3-d]pyrimidin-6-yl)phenyl)-3-phenylurea], for which the IC50 at c-Kit was under 100 nM.
For `CNc1ncc2c(n1)N1CCN=C1C(c1cc(NC(=O)Nc3ccccc3Cl)c(F)cc1Br)=C2` [Compound 327, 1-(4-bromo-2-fluoro-5-(2-(methylamino)-8,9-dihydroimidazo[1′,2′:1,6]pyrido[2,3-d]pyrimidin-6-yl)phenyl)-3-(2-chlorophenyl)urea], the IC50 at c-Kit was under 100 nM.
For `O=C(Nc1ccccc1)Nc1cc(C2=Cc3cnc(NC4COC4)nc3N3CCN=C23)c(Br)cc1F` [Compound 328, 1-(4-bromo-2-fluoro-5-(2-(oxetan-3-ylamino)-8,9-dihydroimidazo[1′,2′:1,6]pyrido[2,3-d]pyrimidin-6-yl)phenyl)-3-phenylurea], the IC50 at c-Kit is under 100 nM.
For the compound `O=C(Nc1cc(C2=Cc3cnc(NC4COC4)nc3N3CCN=C23)c(Br)cc1F)Nc1ccccc1Cl` [Compound 329, 1-(4-bromo-2-fluoro-5-(2-(oxetan-3-ylamino)-8,9-dihydroimidazo[1′,2′:1,6]pyrido[2,3-d]pyrimidin-6-yl)phenyl)-3-(2-chlorophenyl)urea], the IC50 on c-Kit is under 100 nM.
`CNc1ncc2c(n1)N1CCN=C1C(c1cc(NC(=O)Nc3ccccc3Cl)c(F)cc1C)=C2` [Compound 331, 1-(2-chlorophenyl)-3-(2-fluoro-4-methyl-5-(2-(methylamino)-8,9-dihydroimidazo[1′,2′:1,6]pyrido[2,3-d]pyrimidin-6-yl)phenyl)urea]: the 50% inhibitory concentration (IC50) against HPK1 (MAP4K1) was 100 to 10000 nM; at c-Kit it was under 100 nM.
With `CCNc1ncc2c(n1)N1CCN=C1C(c1cc(NC(=O)Nc3ccccc3Cl)c(F)cc1C)=C2` [Compound 332, 1-(2-chlorophenyl)-3-(5-(2-(ethylamino)-8,9-dihydroimidazo[1′,2′:1,6]pyrido[2,3-d]pyrimidin-6-yl)-2-fluoro-4-methylphenyl)urea], the IC50 at c-Kit was under 100 nM.
For `CNc1ncc2c(n1)N1CCN=C1C(c1cc(NC(=O)Nc3ccccc3F)c(Cl)cc1C)=C2` [Compound 334, 1-(2-chloro-4-methyl-5-(2-(methylamino)-8,9-dihydroimidazo[1′,2′:1,6]pyrido[2,3-d]pyrimidin-6-yl)phenyl)-3-(2-fluorophenyl)urea], at c-Kit, the IC50 was under 100 nM.
With `CNc1ncc2c(n1)N1CCN=C1C(c1cc(NC(=O)Nc3ccc(Cl)cc3F)c(F)cc1C)=C2` [Compound 337, 1-(4-chloro-2-fluorophenyl)-3-(2-fluoro-4-methyl-5-(2-(methylamino)-8,9-dihydroimidazo[1′,2′:1,6]pyrido[2,3-d]pyrimidin-6-yl)phenyl)urea], the IC50 at c-Kit was under 100 nM.
Same read-out and setting: with `CNc1ncc2c(n1)N1CCN=C1C(c1cc(NC(=O)Nc3ccccc3F)c(F)cc1C)=C2` [Compound 338, 1-(2-fluoro-4-methyl-5-(2-(methylamino)-8,9-dihydroimidazo[1′,2′:1,6]pyrido[2,3-d]pyrimidin-6-yl)phenyl)-3-(2-fluorophenyl)urea] the figure was under 100 nM.

The record behind these values is patent publication US20230303570A1, “KINASE INHIBITORS AND USES THEREOF” (ABM Therapeutics Corporation, priority 2020, published 2023).
